Measured values published in patent US9957271B2, “Substituted bicyclic aza-heterocycles and analogues as sirtuin modulators” (GlaxoSmithKline, LLC, priority 2012, dated 2018).

Molecular target: T1, SIRT1 (Homo sapiens, UniProt Q96EB6)
T1 sequence (Q96EB6 1-747): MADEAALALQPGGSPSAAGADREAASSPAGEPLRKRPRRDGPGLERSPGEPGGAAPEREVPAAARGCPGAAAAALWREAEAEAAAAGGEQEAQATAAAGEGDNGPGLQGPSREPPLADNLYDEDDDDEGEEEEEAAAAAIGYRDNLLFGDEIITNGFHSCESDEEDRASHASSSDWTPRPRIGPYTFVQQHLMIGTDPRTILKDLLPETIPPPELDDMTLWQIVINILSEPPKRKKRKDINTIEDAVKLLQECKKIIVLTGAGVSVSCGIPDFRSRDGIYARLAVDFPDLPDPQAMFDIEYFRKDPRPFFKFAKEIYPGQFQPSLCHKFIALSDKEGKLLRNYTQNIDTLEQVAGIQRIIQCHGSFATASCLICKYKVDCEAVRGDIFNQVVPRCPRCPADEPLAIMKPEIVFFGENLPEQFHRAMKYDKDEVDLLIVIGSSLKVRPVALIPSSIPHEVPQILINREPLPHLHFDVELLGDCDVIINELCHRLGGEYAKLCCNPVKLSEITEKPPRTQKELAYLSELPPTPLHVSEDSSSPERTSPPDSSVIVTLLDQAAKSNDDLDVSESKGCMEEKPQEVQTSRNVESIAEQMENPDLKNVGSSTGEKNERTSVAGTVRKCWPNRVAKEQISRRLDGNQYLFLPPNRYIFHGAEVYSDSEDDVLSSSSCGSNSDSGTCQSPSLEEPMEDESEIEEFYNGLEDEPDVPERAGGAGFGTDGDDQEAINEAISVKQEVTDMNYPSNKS
Assay: TAMRA based mass spectrometry assay of SIRT1 activity
Format: biochemical
Settings: TAMRA assay; for TAMRA EC1.5 (μM): concentration giving 150% activation of SIRT1; for Emax: percent maximum fold activation, read-out: TAMRA % Fold Act
Summary of the method: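 Recombinant N-terminal His-tagged human SIRT1 (10 nM, E. coli) incubated 25 min at 25 °C with 0.5 μM 5TMR-labelled p53-derived acetyl-peptide and 120 μM βNAD+ in Tris-acetate pH 8 buffer with DTT and 0.05% BSA, compound at varying concentrations. Stopped with formic acid; deacetylated peptide or OAADPR measured by mass spectrometry relative to DMSO controls.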

Compound	TAMRA EC1.5 (μM)	Emax
Cc1cnc(NC(=O)c2cnn3ccc(-c4ccccc4OC(F)(F)F)nc23)cn1 [Compound 623]	A (EC1.5<1 μM)	≥ 350%
Cc1ccc(NC(=O)c2cnn3ccc(-c4ccccc4OC(F)(F)F)nc23)c(C)n1 [Compound 625]	B (EC1.5 1-25 μM)	< 350%
CCOc1cc(NC(=O)c2cnn3ccc(-c4ccccc4OC(F)(F)F)nc23)ccn1 [Compound 626]	A (EC1.5<1 μM)	≥ 350%
Cc1cc(NC(=O)c2c(C)nn3ccc(-c4ccccc4C(F)(F)F)nc23)ccn1 [Compound 629]	A (EC1.5<1 μM)	≥ 350%
Cc1ccc(NC(=O)c2cnn3ccc(-c4ccccc4C(F)(F)F)nc23)cn1 [Compound 631]	A (EC1.5<1 μM)	≥ 350%
Cc1cncc(NC(=O)c2cnn3ccc(-c4ccccc4C(F)(F)F)nc23)c1 [Compound 632]	A (EC1.5<1 μM)	≥ 350%
COc1ccc(NC(=O)c2cnn3ccc(-c4ccccc4OC(F)(F)F)nc23)nn1 [Compound 635]	A (EC1.5<1 μM)	≥ 350%
Cc1ccc(NC(=O)c2c(C)nn3ccc(-c4ccccc4C(F)(F)F)nc23)cn1 [Compound 637]	A (EC1.5<1 μM)	≥ 350%
Cc1cncc(NC(=O)c2c(C)nn3ccc(-c4ccccc4C(F)(F)F)nc23)c1 [Compound 638]	A (EC1.5<1 μM)	≥ 350%
Cc1ccc(NC(=O)c2cnn3ccc(-c4ccccc4C(F)(F)F)nc23)c(C)n1 [Compound 641]	B (EC1.5 1-25 μM)	≥ 350%
CCOc1cc(NC(=O)c2cnn3ccc(-c4ccccc4C(F)(F)F)nc23)ccn1 [Compound 643]	A (EC1.5<1 μM)	≥ 350%
Cc1cc(-c2ccccc2C(F)(F)F)nn2c(C(=O)Nc3cc(N4CCCC4)ncn3)cnc12 [Compound 646]	A (EC1.5<1 μM)	≥ 350%
Cc1cc(NC(=O)c2c(C)nn3ccc(-c4ccccc4C(F)(F)F)nc23)cc(C)n1 [Compound 648]	A (EC1.5<1 μM)	≥ 350%
Cc1ccncc1NC(=O)c1c(C)nn2ccc(-c3ccccc3C(F)(F)F)nc12 [Compound 649]	A (EC1.5<1 μM)	< 350%
Cc1nc(NC(=O)c2c(C)nn3ccc(-c4ccccc4C(F)(F)F)nc23)sc1C [Compound 651]	A (EC1.5<1 μM)	≥ 350%
Cc1cnc(NC(=O)c2c(C)nn3ccc(-c4ccccc4C(F)(F)F)nc23)s1 [Compound 652]	A (EC1.5<1 μM)	≥ 350%
Cc1ccc(NC(=O)c2cnn3ccc(-c4ccccc4C(F)(F)F)nc23)nn1 [Compound 655]	A (EC1.5<1 μM)	≥ 350%
CCOc1ccc(NC(=O)c2cnn3ccc(-c4ccccc4C(F)(F)F)nc23)nn1 [Compound 658]	A (EC1.5<1 μM)	≥ 350%
O=C(Nc1cncc(F)c1)c1cnn2ccc(-c3ccccc3OC(F)(F)F)nc12 [Compound 660]	A (EC1.5<1 μM)	≥ 350%
Cc1cc(C)c(NC(=O)c2cnn3ccc(-c4ccccc4OC(F)(F)F)nc23)cn1 [Compound 661]	B (EC1.5 1-25 μM)	< 350%
COCCOc1cc(NC(=O)c2cnc3c(C)cc(-c4ccccc4C(F)(F)F)nn23)ncn1 [Compound 662]	A (EC1.5<1 μM)	< 350%
Cc1ccc(NC(=O)c2c(C)nc3ccc(-c4ccccc4C(F)(F)F)nn23)nn1 [Compound 664]	A (EC1.5<1 μM)	≥ 350%
CCOc1ccc(NC(=O)c2c(C)nc3ccc(-c4ccccc4C(F)(F)F)nn23)nn1 [Compound 666]	A (EC1.5<1 μM)	≥ 350%
Cc1nc2ccc(-c3ccccc3C(F)(F)F)nn2c1C(=O)Nc1cnncn1 [Compound 667]	A (EC1.5<1 μM)	≥ 350%
Cc1nc2ccc(-c3ccccc3C(F)(F)F)nn2c1C(=O)Nc1nccc(N2CCCC2)n1 [Compound 669]	A (EC1.5<1 μM)	≥ 350%
COc1cncnc1NC(=O)c1c(C)nc2ccc(-c3ccccc3C(F)(F)F)nn12 [Compound 670]	A (EC1.5<1 μM)	≥ 350%

Compound	TAMRA EC1.5 (μM)	Emax
Cc1nc2ccc(-c3ccccc3C(F)(F)F)nn2c1C(=O)Nc1ccc(Cl)cn1 [Compound 673]	A (EC1.5<1 μM)	≥ 350%
Cc1nc2ccc(-c3ccccc3C(F)(F)F)nn2c1C(=O)Nc1ccnn1C [Compound 675]	C (EC1.5>25 μM)	< 350%
CCOc1n[nH]c(NC(=O)c2c(C)nc3ccc(-c4ccccc4C(F)(F)F)nn23)n1 [Compound 676]	A (EC1.5<1 μM)	≥ 350%
Cc1ccc(NC(=O)c2c(C)nn3ccc(-c4ccccc4C(F)(F)F)nc23)nc1 [Compound 684]	A (EC1.5<1 μM)	≥ 350%
Cc1cc(C)nc(NC(=O)c2c(C)nn3ccc(-c4ccccc4C(F)(F)F)nc23)c1 [Compound 685]	A (EC1.5<1 μM)	≥ 350%
Cc1cc(C)c(NC(=O)c2cnn3ccc(-c4ccccc4C(F)(F)F)nc23)cn1 [Compound 687]	B (EC1.5 1-25 μM)	< 350%
Cc1cnc(NC(=O)c2cnn3ccc(-c4ccccc4OC(F)(F)F)nc23)c(C)n1 [Compound 689]	C (EC1.5>25 μM)	< 350%
O=C(Nc1ncc(F)cc1F)c1cnn2ccc(-c3ccccc3OC(F)(F)F)nc12 [Compound 690]	C (EC1.5>25 μM)	< 350%
Cc1cc(-c2ccccc2C(F)(F)F)nn2c(C(=O)Nc3ccnc(N4CC5(CCS5(=O)=O)C4)n3)cnc12 [Compound 691]	A (EC1.5<1 μM)	≥ 350%
COc1ccc(NC(=O)c2c(C)nn3ccc(-c4ccccc4C(F)(F)F)nc23)nn1 [Compound 696]	A (EC1.5<1 μM)	≥ 350%
CCOc1ccc(NC(=O)c2c(C)nn3ccc(-c4ccccc4C(F)(F)F)nc23)nn1 [Compound 697]	A (EC1.5<1 μM)	≥ 350%
Cc1ncccc1NC(=O)c1c(C)nn2ccc(-c3ccccc3C(F)(F)F)nc12 [Compound 699]	A (EC1.5<1 μM)	< 350%
Cc1csc(NC(=O)c2cnn3ccc(-c4ccccc4OC(F)(F)F)nc23)n1 [Compound 702]	A (EC1.5<1 μM)	≥ 350%
COc1cc(NC(=O)c2cnn3ccc(-c4ccccc4OC(F)(F)F)nc23)ncn1 [Compound 703]	A (EC1.5<1 μM)	≥ 350%
O=C(Nc1cnc2ccc(-c3ccccc3C(F)(F)F)nn12)c1cc(O)ncn1 [Compound 705]	A (EC1.5<1 μM)	≥ 350%
Cc1cc(C)c(NC(=O)c2c(C)nn3ccc(-c4ccccc4C(F)(F)F)nc23)cn1 [Compound 708]	B (EC1.5 1-25 μM)	≥ 350%
Cc1nn2ccc(-c3ccccc3C(F)(F)F)nc2c1C(=O)Nc1nccs1 [Compound 709]	A (EC1.5<1 μM)	≥ 350%
O=C(Nc1cc(O)ncn1)c1cnn2ccc(-c3ccccc3OC(F)(F)F)nc12 [Compound 711]	A (EC1.5<1 μM)	≥ 350%
Cc1ccnc(C(=O)Nc2cnn3ccc(-c4ccccc4OC(F)(F)F)nc23)c1 [Compound 714]	A (EC1.5<1 μM)	≥ 350%
Cc1nc2ccc(-c3ccccc3Cl)nn2c1C(=O)Nc1cccnn1 [Compound 715]	B (EC1.5 1-25 μM)	≥ 350%
COc1ccc(NC(=O)c2c(C)nc3ccc(-c4ccccc4C)nn23)nn1 [Compound 720]	B (EC1.5 1-25 μM)	≥ 350%
CCOc1ccc(NC(=O)c2c(C)nc3ccc(-c4ccccc4C)nn23)nn1 [Compound 721]	B (EC1.5 1-25 μM)	< 350%
Cc1cnc(NC(=O)c2cnn3ccc(-c4ccccc4C(F)(F)F)nc23)cn1 [Compound 723, N-(5-methylpyrazin-2-yl)-5-(2-(trifluoromethyl)phenyl)pyrazolo[1,5-a]pyrimidine-3-carboxamide]	A (EC1.5<1 μM)	≥ 350%
Cc1nccc(C(=O)Nc2cnn3ccc(-c4ccccc4OC(F)(F)F)nc23)n1 [Compound 726]	A (EC1.5<1 μM)	≥ 350%
Cc1cc(C(=O)Nc2cnn3ccc(-c4ccccc4OC(F)(F)F)nc23)nc(C)n1 [Compound 727]	A (EC1.5<1 μM)	≥ 350%
Cc1nccc(NC(=O)c2c(C)nc3c(C)cc(-c4ccccc4C(F)(F)F)nn23)n1 [Compound 729]	A (EC1.5<1 μM)	≥ 350%
